# According to ChEMBL document CHEMBL1135738, “Synthesis of novel cationic lipids: effect of structural modification on the efficiency of gene transfer” (J Med Chem, 2002):
# Tested on: V79
# Test: Cytotoxic effect of compound was measured in lipid V79cell formulation.
# Assay type: functional, cell-based
# Settings: Cricetulus griseus
row,Structure (SMILES),IC50 [µM]
1,CCCCCCCCCCCCOCC(CN)OCCCCCCCCCCCC (stereo not given),75
2,CCCCCCCCCCCCCCCCCCOCC(CN)OCCCCCCCCCCCC (stereo not given),76
3,CCCCCCCCCCCCCCCCCCOCC(CN)OCCCCCCCCCCCCCCCCCC (stereo not given),67
4,CCCCCCCCCCCCOCC(CNC(=O)[C@@H](N)CCCCN)OCCCCCCCCCCCC (stereo not given in full),34
5,CCCCCCCCCCCCOCC(CNC(=O)[C@@H](N)CCCN=C(N)N)OCCCCCCCCCCCC (stereo not given in full),20
